From patent US20260308152A1, “METHODS OF MAKING 2-AMINO-1-(3-HYDROXY-2,6-DIMETHYLPHENYL)-5,6-DIMETHYL-1H-PYRROLO-[2,3-B]PYRIDINE-3-CARBOXAMIDE, A MYT1 INHIBITOR” (Repare Therapeutics Inc., priority 2022, published 2026)
Converted amounts (≈) assume the structure as drawn. Marks after values point to notes of the source that are not given here.

Tests used:
Format in all cases: physicochemical
[1] = Chiral acid salt screen: approximate solubility of starting material in solvents; conditions: ambient temperature, 3 days
Protocol: INT 1f salts (50-60 mg) were weighed into 4 ml vials. Solvent (~0.2-1.0 mL) was added to each vial, and the vials were stirred at ambient temperature for 3 days. Additional solvent was added to vials with thick slurries, and additional salts were added to vials with clear solutions.
In this example, the resolution of INT 1g and Compound 1 via chiral salts is summarized.

[2] = Solubility in anisole at various temperatures
Excerpt: The solubility of racemic INT 1f (recrystallized from anisole) in anisole at various temperatures was investigated (Table 28).
The solubility of (S)-INT 1f/(R)-CSA salt in anisole at various temperatures was also investigated

[3] = Solubility of INT 1b in organic solvents; conditions: most organic solvents (FIG. 1)
Excerpt: FIG. 1 is a graph illustrating the solubility of INT 1b in organic solvents, including heptane, toluene, xylenes, isopropyl acetate (IPAc), ethyl acetate (EtOAc), methyl ethyl ketone (MEK), methyl t-butyl ether (MTBE), dichloromethane (DCM), methanol (MeOH), ethanol (EtOH), isopropanol (iPrOH), acetonitrile (MeCN), water, 5 M H2SO4, and 1 M H2SO4.

[4] = Aromatic solvent screen: solubility of INT 1f/(R)-CSA salt
Excerpt: Following the encouraging result employing anisole as the solvent and switching to (R)-CSA to afford the desired diastereomer, the following common aromatic solvents were screened: 1,3-dimethoxybenzene;
2-, 3-, and 4-methyanisoles; o, m, and p-xylenes; and α,α,α-trifluorotoluene (Table 18). […] In addition to anisole, 4-methylanisole and 1,3-dimethoxybenzene also afforded enantioenriched crystalline solids with enantiomeric ratios (e.r.) of 90:10 and 87:13, respectively. However, the highest e.r. was obtained with anisole (92:8).

Row | SMILES | Approximate Solubility of Starting Material ([1]; 1,4-Dioxane) | Approximate Solubility of Starting Material ([1]; Acetone:water (9:1)) | Approximate Solubility of Starting Material ([1]; Anisole) | Approximate Solubility of Starting Material ([1]; DCM) | Approximate Solubility of Starting Material ([1]; EtOAc) | Approximate Solubility of Starting Material ([1]; EtOH:Heptane (1:1)) | Approximate Solubility of Starting Material ([1]; EtOH) | Approximate Solubility of Starting Material ([1]; MeCN) | Approximate Solubility of Starting Material ([1]; THF) | Approximate Solubility of Starting Material ([1]; Toluene) | further results
1 | COc1ccc(C)c(-n2c(N)c(C#N)c3cc(C)c(C)nc32)c1C (racemic) [INT 1f, 2-Amino-1-(3-methoxy-2,6-dimethylphenyl)-5,6-dimethyl-1H-pyrrolo[2,3-b]-pyridine-3-carbonitrile] |  |  |  |  |  |  |  |  |  |  | Solubility in anisole ([2]; racemic, crystal form recrystallized from anisole, 25° C.): 14.01 mg/mL (≈ 43.7 mM); Solubility in anisole ([2]; racemic, crystal form recrystallized from anisole, 30° C.): 17.72 mg/mL (≈ 55.3 mM); Solubility in anisole ([2]; racemic, crystal form recrystallized from anisole, 40° C.): 21.26 mg/mL (≈ 66.4 mM); Solubility in anisole ([2]; racemic, crystal form recrystallized from anisole, 50° C.): 25.99 mg/mL (≈ 81.1 mM); Solubility in anisole ([2]; racemic, crystal form recrystallized from anisole, 60° C.): 46.5 mg/mL (≈ 145 mM)
2 | CC1(C)[C@H]2CC[C@]1(CS(=O)(=O)O)C(=O)C2.COc1ccc(C)c(-n2c(N)c(C#N)c3cc(C)c(C)nc32)c1C [(S)-INT 1f/(R)-CSA, (S)-2-Ammonium-1-(3-methoxy-2,6-dimethylphenyl)-5,6-dimethyl-1H-pyrrolo[2,3-b]-pyridine-3-carbonitrile/(R)-CSA] |  |  |  |  |  |  |  |  |  |  | Solubility in anisole ([2]; salt, 21° C.): 2.39 mg/mL; Solubility in anisole ([2]; salt, 30° C.): 3.78* mg/mL; Solubility in anisole ([2]; salt, 40° C.): 3.37 mg/mL; Solubility in anisole ([2]; salt, 50° C.): 4.20 mg/mL; Solubility in anisole ([2]; salt, 60° C.): 7.29 mg/mL
3 | Cc1cc2c(C(N)=O)c(N)n(-c3c(C)ccc(O)c3C)c2nc1C [Compound 1/Acid d] |  |  | Partially soluble | Partially soluble |  | Partially soluble |  |  |  |  | 
4 | Cc1cc2c(C(N)=O)c(N)n(-c3c(C)ccc(O)c3C)c2nc1C [Compound 1/Acid f] |  | Soluble | Soluble | Partially soluble |  | Soluble | Partially soluble | Partially soluble | Soluble |  | 
5 | Cc1cc2c(C(N)=O)c(N)n(-c3c(C)ccc(O)c3C)c2nc1C [Compound 1/Acid h] |  | Soluble |  | Partially soluble |  |  | Soluble |  |  |  | 
6 | Cc1cc(Br)c(=O)[nH]c1C [INT 1b] |  |  |  |  |  |  |  |  |  |  | solubility in most organic solvents [3]: poor solubility
7 | COc1ccc(C)c(-n2c(N)c(C#N)c3cc(C)c(C)nc32)c1C.O=C(O[C@H](C(=O)O)[C@H](OC(=O)c1ccccc1)C(=O)O)c1ccccc1 [INT 1f/(+)-2,3-Dibenzoyl-D-tartaric Acid] | Highly soluble | Soluble | Soluble | Highly soluble | Soluble | Soluble | Soluble | Soluble | Highly soluble | Soluble | 
8 | CC1(C)C2CC[C@]1(CS(=O)(=O)O)C(=O)C2.COc1ccc(C)c(-n2c(N)c(C#N)c3cc(C)c(C)nc32)c1C [INT 1f/(R)-CSA] |  |  |  |  |  |  |  |  |  |  | solubility ([4]; 1,3-dimethoxybenzene and anisole): high solubility; solubility ([4]; 2-, 3-, 4-methyanisole with heating): good solubility; solubility ([4]; other aromatic solvents (xylenes, α,α,α-trifluorotoluene)): poor solubility
9 | CC(C)c1cc(C(C)C)c(-c2cc3ccccc3c3c2OP(=O)(O)Oc2c(-c4c(C(C)C)cc(C(C)C)cc4C(C)C)cc4ccccc4c2-3)c(C(C)C)c1.COc1ccc(C)c(-n2c(N)c(C#N)c3cc(C)c(C)nc32)c1C [INT 1f/(S)-TRIP] | Highly soluble | Highly soluble | Very soluble | Highly soluble | Very soluble | Soluble | Soluble | Soluble | Highly soluble | Highly soluble | 

Second part, led by results:

Row | Approximate Solubility of Starting Material ([1]; 1,4-Dioxane) | Approximate Solubility of Starting Material ([1]; Acetone:water (9:1)) | Approximate Solubility of Starting Material ([1]; Anisole) | Approximate Solubility of Starting Material ([1]; DCM) | Approximate Solubility of Starting Material ([1]; EtOAc) | Approximate Solubility of Starting Material ([1]; EtOH:Heptane (1:1)) | Approximate Solubility of Starting Material ([1]; EtOH) | Approximate Solubility of Starting Material ([1]; MeCN) | Approximate Solubility of Starting Material ([1]; THF) | Approximate Solubility of Starting Material ([1]; Toluene) | SMILES | further results
10 | Highly soluble | Highly soluble | Soluble | Highly soluble | Very soluble | Highly soluble | Very soluble | Highly soluble | Highly soluble | Soluble | CC1(C)C2CCC1(CS(=O)(=O)O)C(=O)C2Br.COc1ccc(C)c(-n2c(N)c(C#N)c3cc(C)c(C)nc32)c1C.O | 
11 | Highly soluble | Very soluble | Very soluble | Highly soluble | Soluble | Soluble | Very soluble | Soluble | Highly soluble | Very soluble | COc1ccc(C)c(-n2c(N)c(C#N)c3cc(C)c(C)nc32)c1C.O=P1(O)Oc2ccc3ccccc3c2-c2c(ccc3ccccc23)O1 | 
12 | Very soluble | Soluble | Soluble | Very soluble | Soluble | Soluble | Soluble | Soluble | Very soluble | Soluble | COc1ccc(C)c(-n2c(N)c(C#N)c3cc(C)c(C)nc32)c1C.Cc1ccc(C(=O)O[C@H](C(=O)O)[C@H](OC(=O)c2ccc(C)cc2)C(=O)O)cc1 | 
13 | Soluble | Highly soluble | Very soluble | Very soluble | Soluble | Soluble | Very soluble | Highly soluble | Very soluble | Highly soluble | CC1(C)C2CC[C@@]1(CS(=O)(=O)O)C(=O)C2.COc1ccc(C)c(-n2c(N)c(C#N)c3cc(C)c(C)nc32)c1C [INT 1f/(S)-CSA] | 
14 | Soluble | Soluble | Very soluble | Highly soluble | Highly soluble | Soluble | Very soluble | Very soluble | Highly soluble | Very soluble | COc1ccc(C)c(-n2c(N)c(C#N)c3cc(C)c(C)nc32)c1C.O=P1(O)Oc2c(-c3c(C4CCCCC4)cc(C4CCCCC4)cc3C3CCCCC3)cc3ccccc3c2-c2c(c(-c3c(C4CCCCC4)cc(C4CCCCC4)cc3C3CCCCC3)cc3ccccc23)O1 [INT 1f/(S)-TCYP] | 
